From patent US20140018340A1, “Insulin Mimetic Active Comprising Oxodiperoxo Vanadates and a Pharmaceutical Composition Obtained Thereof” (priority 2011, published 2014)

Experiments:
[1] = system: Glut4 in 3T3-L1 adipocytes; test: In vitro assay of Glut 4 translocation (GFP-Glut4 transfected cells); format: cell-based; conditions: GFP-Glut4 transfected 3T3-L1 adipocytes
[2] = dose inducing insulin like activity, from cited reference; cited from earlier work

Substance	Glut4 translocation from cytosol to membrane [1]	Dose in-vitro [2] [mM]
insulin: the hormone which regulates the body's glucose level and metabolism	gets translocated to the membrane on addition of insulin	
pervanadate		1
